Several values for one entry are separate records, joined by “and”; a condition that tells them apart may be missing. Equal values may be shown once.
Columns and labels:
[1] = system: 5637; assay: MTT assay IC50, bladder cancer cell line; assay type: cell-based, human; settings: 72 hours
Procedure: Thus, we measured the IC50 of the six NSCLC cell lines from Example 2 to both cisplatin and carboplatin to determine if the sensitivity of these six NSCLC cell lines to the two drugs are correlated.
Drug-DNA adduct formation and repair was measured by accelerator mass spectrometry.
These two cell lines were also cultured with a range of concentrations of cisplatin, carboplatin, gemcitabine, doxorubicin, methotrexate and vinblastine for 72 hours to determine IC50 for these other drugs (FIG. 16C). These drugs were chosen because of their frequent use in the treatment of bladder cancer.

[2] = system: MDA MB 231; assay: MTT assay, carboplatin cytotoxicity; assay type: cell-based, human; settings: 72 hours
Procedure: (§1) Six breast cancer cell lines were tested. […] The cell lines were purchased from ATCC, and cultured in the recommended media. IC50 values were determined for each cell line using the MTT assay (Henderson et al., International Journal of Cancer 2011) after incubating cells for 72 hours with different concentrations of carboplatin. [^14C] carboplatin (53 mCi/mmol) was purchased from the GE Healthcare (Waukesha, Wis.) and further purified at Moravek Biochemical (Brea, Calif.). Unlabeled carboplatin (USP Pharmaceutical Grade) was used to minimize the usage of radiocarbon and achieve the specific activities required for microdoses and therapeutic doses.

[3] = system: BT 549; assay: MTT assay, carboplatin cytotoxicity; assay type: cell-based, human; settings: 72 hours
Procedure: as §1

[4] = system: MCF-7; assay: MTT assay, carboplatin cytotoxicity; assay type: cell-based, human; settings: 72 hours
Procedure: as §1

[5] = system: T47D; assay: MTT assay, carboplatin cytotoxicity; assay type: cell-based, human; settings: 72 hours
Procedure: as §1

[6] = system: MDA MB 468; assay: MTT assay, carboplatin cytotoxicity; assay type: cell-based, human; settings: 72 hours
Procedure: as §1

[7] = system: Hs 578T; assay: MTT assay, carboplatin cytotoxicity; assay type: cell-based, human; settings: 72 hours
Procedure: as §1

[8] = sterile solution in water
Procedure: Radiolabeled carboplatin containing C^14 carbon atoms in the cyclobutane dicarboxylic acid group was formulated for human use as a sterile, pyrogen free solution at 5 mg/mL in water.

[9] = system: Tumor Tissue; assay: microdose-induced carboplatin-DNA monoadducts in patients; assay type: in vivo, human
Procedure: Based upon the previous mouse studies that identified a minimal microdose for accurate AMS analysis of carboplatin monoadducts (1% of therapeutic carboplatin containing 50,000 DPM/gm of mouse body weight), the first in-human evaluation of microdose [^14C]carboplatin was conducted at this same equivalent formulation. The mouse radioactive dose (50,000 DPM/gm), adjusted for body surface area differences between mouse and humans, is equivalent to a dose of 1.0×10^7 DPM/kg of human body weight. The carboplatin dose for human chemotherapy is personalized to a patient's size and kidney function and is calculated using the Calvert formula with an AUC of 6 (Calvert, A. H., et al. “Carboplatin dosage: prospective evaluation of a simple formula based on renal function.” Journal of Clinical Oncology 7.11 (1989): 1748-1756). […] After blood collection, the BD Vacutainer CPT™ tubes were gently inverted several times to ensure mixing with heparin anticoagulant. The tubes were immediately placed on ice or stored at 4° C. and_then processed within 2 hours of collection to separate plasma and PBMC. For processing, the blood filled BD Vacutainer CPT™ tubes were centrifuged at room temperature in a horizontal rotor for 25 minutes at 1600×g. The top plasma layer was transferred to separate tubes and stored at or below −70° C. After most of the plasma was removed from the CPT tube, PBMC were transferred to another tube and washed three times with ice-cold phosphate-buffered solution (PBS). After pelleting the cells and removing the supernatant, the PBMC's were stored frozen at −80° C. until being processed to isolate DNA for determination of the carboplatin-DNA monoadduct frequency. […]
As we have shown in cell culture and mouse tumor xenograph experiments, the carboplatin-DNA monoadduct frequency is proportional to the dose and time integrated exposure to carboplatin. […] DNA from PBMC and tumor tissue was extracted and analyzed by AMS for carboplatin-DNA monoadduct frequency. […]

[10] = system: H23; assay: carboplatin-DNA monoadducts by AMS; assay type: cell-based, human
Procedure: (§2) NSCLC cell lines were cultured to >90% confluence, dosed with [^14C]carboplatin, and subjected to DNA isolation and AMS analysis. 60 mm dishes were seeded at a density of 1×10^6 cells/dish and allowed to attach overnight in a 37° C. humidified atmosphere containing 5% CO2. At hour 0, cells were dosed with 1 μM (relevant microdose concentration) or 100 μM carboplatin (therapeutically relevant concentration), each comprising 0.3 μM [^14C]carboplatin (50,000 dpm/ml). Cells were incubated with [^14C]carboplatin for 4 h before washing and cultured with carboplatin-free medium to mimic the in vivo carboplatin half-life (1.3-6 hours) in patients. DNA was harvested from the cell lines at hours 0, 2, 4, 8 and 24 hours after initial dosing. Ten micrograms of DNA per sample was converted to graphite and measured by AMS for ^14C/total C quantification. Triplicate sets of AMS experiments were performed for each cell line and time point. The 14C/total C ratio was converted to 14C atoms per DNA base-pair according to the algorithm described herein to provide values of carboplatin-DNA monoadducts per 10^8 nucleotides. The data was plotted as carboplatin-DNA monoadducts per 10^8 nucleotide (nt) vs time (FIGS. 8A and 8B). There was a time-dependent increase in the carboplatin-DNA monoadduct concentration during the first 4 hours of incubation with therapeutic or microdosing carboplatin (FIGS. 8A and 8B). After the cells were washed and incubated with carboplatin-free media, the monoadduct levels decreased over a period of several hours. […] Carboplatin-DNA monoadduct levels in the microdosing group had essentially the same kinetics as the therapeutic group, but with 100-fold lower adduct levels at each time point (FIGS. 8A and 8B).

[11] = system: A549; assay: carboplatin-DNA monoadducts by AMS; assay type: cell-based, human
Procedure: as §2

[12] = 1 μM carboplatin 4 h, up to 24 hours
[13] = 1 μM carboplatin 4 h then drug-free
[14] = 100 μM carboplatin 4 h, up to 24 hours
[15] = 100 μM carboplatin 4 h then drug-free

## N.N.O=C([O-])C1(C(=O)[O-])CCC1.[Pt+2] [carboplatin]
[1]
  IC50: 24.3 µM
[1]; listed as Carboplatin
  IC50: 24.35 ± 0.12 µM
[2]
  IC50: 250 µM
[3]
  IC50: 68 µM
[4]
  IC50: 137 µM
[5]
  IC50: 250 µM
[6]
  IC50: 44 µM
[7]
  IC50: 44 µM
[8]; storage at −20° C.
  loss of radiopurity per year: < 2%
[8]; upon freezing
  stability to freeze/thaw: no observed precipitation
[9]; Bladder cancer, individual patients
  24 h adducts Tumor: 20.2 per 10^8 nt and 14.8 per 10^8 nt and 5.37 per 10^8 nt and 3.13 per 10^8 nt and 0.31 per 10^8 nt and 42.5 per 10^8 nt and 8.79 per 10^8 nt and 0.923 per 10^8 nt
[9]; Hodgkin patient
  24 h adducts Tumor: 4.58 per 10^8 nt
[9]; NSCLC, individual patients
  24 h adducts Tumor: 0.87 per 10^8 nt and 0.66 per 10^8 nt and 1.3 per 10^8 nt
[10]; 1 μM carboplatin
  Adduct level-4 hr-microdose: 7.4 ± 1.4 /10^8 nt
[10]; [12]
  AUC of adduct-microdose: 136.6 ± 9.0 hr-adducts/10^8 nt
[10]; [13]
  Adduct level-24 hr Microdose: 5.4 ± 0.1 /10^8 nt
[10]; 100 μM carboplatin
  Adduct level-4 hr-therapeutic: 825 ± 5.8 /10^8 nt
[10]; [14]
  AUC of adduct-therapeutic: 13255 ± 835 hr-adducts/10^8 nt
[10]; [15]
  Adduct level-24 hr-therapeutic: 414 ± 27.1 /10^8 nt
[11]; 1 μM carboplatin
  Adduct level-4 hr-microdose: 2.0 ± 0.4 /10^8 nt
[11]; [12]
  AUC of adduct-microdose: 31.5 ± 1.6 hr-adducts/10^8 nt
[11]; [13]
  Adduct level-24 hr Microdose: 0.9 ± 0.0 /10^8 nt
[11]; 100 μM carboplatin
  Adduct level-4 hr-therapeutic: 163 ± 74.4 /10^8 nt
[11]; [14]
  AUC of adduct-therapeutic: 2331 ± 257 hr-adducts/10^8 nt
[11]; [15]
  Adduct level-24 hr-therapeutic: 74 ± 10.4 /10^8 nt

From patent US20200010910A1, “Cytotoxic Chemotherapy-Based Predictive Assays for Acute Myeloid Leukemia” (The Regents of The University of California, priority 2017, published 2020)
